From patent US8536332B2, “Modulating signal transduction pathways with substituted pyridol [2,3-b] pyrazines” (Aeterna Zentaris GmbH, priority 2007, dated 2013)

Assays:
MDA-MB468 = experiment: XTT assay, anti-proliferative activity, MDA-MB468; format: cell-based; settings: Homo sapiens, MDA-MB-468; 45 h incubation
Procedure, shortened: (§1)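 Hct116 (5000 cells/well) and MDA-MB468 (10000 cells/well) seeded overnight, then incubated with compound 45 h at 37 °C, 5% CO2. XTT (325 μg/ml) plus PMS (2.5 μg/ml) added for 3 h, formazan read at 490 nm; % inhibition versus no-compound and no-cell controls, EC50 fitted.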

PI3Kalpha = target: T1, PI3Kalpha (Homo sapiens, UniProt P42336); experiment: Cell-free kinase assay PI3K-ALPHA; format: biochemical
T1 construct: purchased Upstate #14-602
T1 sequence (P42336 whole entry): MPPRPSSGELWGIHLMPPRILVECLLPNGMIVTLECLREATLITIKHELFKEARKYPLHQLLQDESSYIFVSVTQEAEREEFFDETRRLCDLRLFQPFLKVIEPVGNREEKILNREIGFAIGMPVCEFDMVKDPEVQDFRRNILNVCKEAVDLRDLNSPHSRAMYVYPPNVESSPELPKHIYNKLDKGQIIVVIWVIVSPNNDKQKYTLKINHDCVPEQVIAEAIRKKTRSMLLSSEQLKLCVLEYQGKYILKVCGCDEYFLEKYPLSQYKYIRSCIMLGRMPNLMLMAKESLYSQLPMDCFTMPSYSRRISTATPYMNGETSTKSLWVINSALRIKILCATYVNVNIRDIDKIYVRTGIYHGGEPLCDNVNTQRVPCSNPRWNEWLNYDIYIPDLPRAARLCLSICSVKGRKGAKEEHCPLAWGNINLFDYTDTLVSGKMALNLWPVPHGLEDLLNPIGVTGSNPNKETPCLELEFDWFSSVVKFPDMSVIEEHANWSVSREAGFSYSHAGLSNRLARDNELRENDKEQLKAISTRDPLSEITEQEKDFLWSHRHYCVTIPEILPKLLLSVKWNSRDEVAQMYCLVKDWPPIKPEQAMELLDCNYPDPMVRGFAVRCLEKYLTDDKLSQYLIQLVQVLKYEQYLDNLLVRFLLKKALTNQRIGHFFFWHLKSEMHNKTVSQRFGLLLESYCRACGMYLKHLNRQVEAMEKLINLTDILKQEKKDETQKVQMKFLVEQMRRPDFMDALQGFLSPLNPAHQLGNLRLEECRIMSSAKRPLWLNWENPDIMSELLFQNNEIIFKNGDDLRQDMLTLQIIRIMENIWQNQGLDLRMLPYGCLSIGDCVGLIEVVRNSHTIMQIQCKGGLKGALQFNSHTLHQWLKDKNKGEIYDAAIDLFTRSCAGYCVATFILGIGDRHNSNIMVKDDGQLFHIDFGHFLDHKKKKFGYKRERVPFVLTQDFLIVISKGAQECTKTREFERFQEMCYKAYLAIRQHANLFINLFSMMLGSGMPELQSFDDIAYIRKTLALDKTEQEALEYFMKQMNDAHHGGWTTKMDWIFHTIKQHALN
T1 sequence (P27986 whole entry partner): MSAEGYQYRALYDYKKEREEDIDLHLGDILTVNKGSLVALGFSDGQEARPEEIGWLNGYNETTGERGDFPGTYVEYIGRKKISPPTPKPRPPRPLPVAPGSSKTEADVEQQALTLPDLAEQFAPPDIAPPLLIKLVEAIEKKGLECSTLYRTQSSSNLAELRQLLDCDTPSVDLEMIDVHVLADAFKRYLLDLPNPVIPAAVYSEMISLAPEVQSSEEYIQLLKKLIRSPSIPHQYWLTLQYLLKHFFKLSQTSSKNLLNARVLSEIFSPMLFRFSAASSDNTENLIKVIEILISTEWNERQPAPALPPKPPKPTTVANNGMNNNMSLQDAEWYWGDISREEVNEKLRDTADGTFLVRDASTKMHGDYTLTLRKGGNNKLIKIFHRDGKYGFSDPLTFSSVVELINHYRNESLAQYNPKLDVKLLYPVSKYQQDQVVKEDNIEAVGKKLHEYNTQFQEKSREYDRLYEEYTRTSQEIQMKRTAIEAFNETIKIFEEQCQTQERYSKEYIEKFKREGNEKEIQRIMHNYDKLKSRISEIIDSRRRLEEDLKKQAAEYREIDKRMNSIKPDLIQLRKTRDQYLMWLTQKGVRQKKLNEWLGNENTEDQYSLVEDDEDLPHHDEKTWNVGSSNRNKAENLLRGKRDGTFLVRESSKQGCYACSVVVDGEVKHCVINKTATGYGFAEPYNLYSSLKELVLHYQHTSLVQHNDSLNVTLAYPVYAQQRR
Description: (§2) The inhibitory effect of the compounds of the invention was tested on various human serine/threonine kinases, tyrosine kinases and lipid kinases in enzymatic assays. Recombinant human kinases, for example PI3Kalpha, -beta, -gamma, -delta, Erk2, p38alpha, p38gamma, Jnk1, Jnk2 and others were used, in some cases as full-length kinases, in some cases as truncated fragments—but at least consisting of the functional kinase domains. The commercial kinase proteins (Proqinase, Upstate) were used as recombinant fusion proteins with GST (glutathione S-transferase) tag or His tag. Depending on the substrate type, the different kinase reactions were quantified by suitable ALPHA™ beads (PerkinElmer).
(§3) The kinase assays for PI3K and Erk are described in detail and selected test results are cited below. […] Subsequently, the kinase reaction was stopped by adding the ALPHA bead mix (10 μg/ml, #6760603/PerkinElmer), preincubated with 1 nM GST:Grp1 fusion protein (Upstate) and […] (#C-39B6/Echelon) in 50 mM Hepes, 50 mM NaCl, 50 mM EDTA and 0.1% BSA, and left to stand overnight. • b) Erk2-ALPHA: The test substance, 0.625 ng of Erk2 (#14-173, Upstate), 10 μM ATP and 15 nM biotinylated MBP (myelin basic protein) substrate were incubated on a 384-well Optiplate (Perkin Elmer) in a volume of 15 μl for 1 h in 25 mM Tris, 10 mM MgCl2, 0.1% Tween-20, 100 μM NaVO4, 2 mM DTT at pH 7.5. The kinase reaction was stopped by adding 10 μl of the ALPHA bead mix (10 μg/ml, #6760617/PerkinElmer), pre-incubated with anti-phospho MBP antibody (320 pM, #05-429/Upstate), in 25 mM Tris, 200 mM NaCl, 100 mM EDTA and 0.3% BSA, and left to stand overnight.
(§4) The luminiscence was detected the next morning in a Fusion™ alpha instrument (Perkin Elmer).
(§5) The calculation of % inhibition values per substance concentration was done by means of the following formula from the raw data determined in the Fusion™ alpha:
(§6) The controls were determined 8 fold and the substance samples 2 fold. 0% control contained neither any ATP nor any substrate. The 100% control contained no test substance. The IC50 values were determined with GraphPadPrism.

Jnk1 + Jnk2 = test system: T2, Jnk1 + Jnk2; experiment: Cell-free kinase assay (ALPHA technology) Jnk1 + Jnk2; format: biochemical, human; settings: 10 μM ATP
T2 construct: fused on or other part: GST tag or His tag (commercial recombinant fusion proteins from Proqinase or Upstate)
Description: as §2, §3, §4, §5, §6

Hct116 = experiment: XTT assay, anti-proliferative activity, Hct116; format: cell-based; settings: Homo sapiens, HCT-116; 45 h incubation
Procedure, shortened: as §1

Phospho-p90RSK (S380) = experiment: Cellular substrate phosphorylation (Western blotting), Erk →pRsk; format: cell-based, human
Description: (§7) This method enables a statement of whether the kinase modulator investigated achieves the desired effect in a cellular context too, i.e., in this case, a substrate protein downstream of the target kinase is examined for its phosphorylation status. To this end, the cells incubated with substance are lysed and the overall protein is separated on a reducing polyacrylamide gel. Subsequently, the proteins are transferred to a PVDF membrane by Western blotting and the substrate bands sought are made visible with specific antibodies and a suitable detection method. The substrate proteins down-stream of the target kinases are detected simultaneously with an anti-phospho antibody which is specific in each case and a total antibody which recognizes the substrate total protein. The duplex technology of the ODYSSEY imager (LiCOR) enables this simultaneous measurement. The intensity of the total substrate bands is employed to normalize and quantify the phosphorylation inhibition or activation.
(§8) Suitable tumor cell lines (e.g. BxPC3, Hct116 or MDA MB468) were seeded into 6-well microtitre plates in a defined cell count (e.g. 350 000 cells/well for BxPC3 and Hct116) in the particular standard complete media and then incubated overnight at 37° C., 5% CO2 and 95% air humidity. Afterwards, the cells were incubated for 24 h under serum-reduced conditions, i.e. in the particular medium except at only 0.25% serum. The test substances were made up as stock solutions (10 mM) in DMSO and incubated with the cells at final concentrations of 5, 15.8 and 50 μM for 5 h. This was followed by cell lysis in 25 mM Tris, 150 mM NaCl, 10 mM sodium pyrophosphate, 2 mM EGTA, 25 mM beta-glycerophosphate, 25 mM NaF, 10% glycerol, 0.75% NP-40, 100 μM NaVO4 buffer. After protein quantification using the BCA (bicinchonic acid protein assay kit, Sigma) assay, amounts of protein of about 20 μg per track were separated on a Lämmli polyacrylamide gel and then transferred onto a PVDF membrane (Millipore) by semi-dry Western blotting at 0.8 mA/cm^2 for 1 h. This was followed by prehybridization of the membrane for 1 hour in I-block reagent (Applied Biosystems) and overnight simultaneous incubation with the specific antibodies. […] After the membrane had been washed, the secondary antibodies were incubated with anti-rabbit IR Dye 800 (#611-732-127, Rockland) for the phospho antibodies and anti-goat Alexa Fluor 680 (#A-21081, […]) for the total protein antibodies. After incubation for 30 min at room temperature in the dark, the hybridization of the detection antibody was detected on the membrane by scanning in an ODYSSEY imager (LiCOR).

Phospho-Akt (Ser 473) = experiment: Cellular substrate phosphorylation (Western blotting), PI3K →pAkt; format: cell-based, human
Description: as §7, §8

p38alpha = p38alpha (Homo sapiens, UniProt Q16539); experiment: Cell-free kinase assay (ALPHA technology) p38alpha; format: biochemical; settings: 10 μM ATP
p38alpha, sequence (Q16539 whole entry): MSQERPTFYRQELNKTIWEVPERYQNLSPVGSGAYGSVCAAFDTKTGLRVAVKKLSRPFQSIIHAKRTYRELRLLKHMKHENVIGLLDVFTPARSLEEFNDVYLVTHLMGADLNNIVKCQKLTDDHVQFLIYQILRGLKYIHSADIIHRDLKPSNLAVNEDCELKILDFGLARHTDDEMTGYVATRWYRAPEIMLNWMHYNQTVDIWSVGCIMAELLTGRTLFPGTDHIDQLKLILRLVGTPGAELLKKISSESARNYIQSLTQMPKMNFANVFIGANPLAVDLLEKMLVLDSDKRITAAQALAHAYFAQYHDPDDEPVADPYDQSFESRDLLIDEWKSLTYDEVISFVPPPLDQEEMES
Description: as §2, §3, §4, §5, §6

Erk2 = target: T3, Erk2 (Mus musculus, UniProt P63085); experiment: Cell-free kinase assay Erk2-ALPHA; format: biochemical, human; settings: 10 μM ATP
T3 construct: purchased Upstate #14-173
T3 sequence (P63085 whole entry): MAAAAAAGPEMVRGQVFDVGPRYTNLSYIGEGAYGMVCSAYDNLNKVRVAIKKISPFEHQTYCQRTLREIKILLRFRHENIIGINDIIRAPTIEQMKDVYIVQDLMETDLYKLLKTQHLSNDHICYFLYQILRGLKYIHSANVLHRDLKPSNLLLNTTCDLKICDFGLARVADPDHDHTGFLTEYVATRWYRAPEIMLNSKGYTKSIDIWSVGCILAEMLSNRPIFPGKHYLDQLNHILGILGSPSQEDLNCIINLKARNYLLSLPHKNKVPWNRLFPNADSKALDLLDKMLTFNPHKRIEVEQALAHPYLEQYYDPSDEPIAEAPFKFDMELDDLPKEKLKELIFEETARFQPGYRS
Description: as §2, §3, §4, §5, §6

[1] = Cell-free kinase assay Erk2-ALPHA; format: biochemical, human; settings: cell-free kinase assay; MAPK = Erk2, p38alpha, Jnk1+Jnk2 of Table 1
Description: as §2, §3, §4, §5, §6

p110alpha H107R = settings: cited from earlier work
[2] = Western blotting, concentrations of 5-50 μM

| Compound | EC50 (MDA-MB468) | PI3K inhibition, in words (PI3Kalpha) | IC50 (Jnk1 + Jnk2) | EC50 (Hct116) | inhibition at 50 µM (Phospho-p90RSK (S380); Homo sapiens, at 50 μM, 5 h) | inhibition of phospho-Rsk / Raf-Mek-Erk pathway, in words (Phospho-p90RSK (S380); [2]) | inhibition at 50 µM (Phospho-Akt (Ser 473); Homo sapiens, at 50 μM, 5 h) | inhibition of cellular phospho-Akt / PI3K-Akt pathway, in words (Phospho-Akt (Ser 473); [2]) | melting point | IC50 (p38alpha) | IC50 (Erk2) | Erk2 / MAPK inhibition, in words [1] | IC50 (p110alpha H107R) |
| --- | --- | --- | --- | --- | --- | --- | --- | --- | --- | --- | --- | --- | --- |
| CCNC(=O)Nc1ccc2ncc(Nc3ccc(O)c(C(=O)OC)c3)nc2n1 [Compound 50, 5-[6-(3-Ethyl-ureido)-pyrido[2,3-b]-pyrazin-3-ylamino]-2-hydroxy-benzoic acid methyl ester] | < 10 µM | PI3K inhibition | > 100 µM | < 5 µM | 0% | do not block the Raf-Mek-Erk pathway | 100% | cellular PI3K selectivity | 195 to 200 °C | > 100 µM | > 100 µM | no or only moderate MAPK inhibition | – |
| Cn1c(=O)n(-c2ccc(C(C)(C)C#N)cc2)c2c3cc(-c4cnc5ccccc5c4)ccc3ncc21 [BEZ-235] | – | – | – | – | – | – | – | – | – | – | – | – | 0.018 µM |
